Experimental data reported in ChEMBL document CHEMBL5674866 (J Biol Chem, 2015).

Tests used:
[1] = Inhibition of human ABL1 pH396P mutant by discoverX kinome scan assay
[2] = Inhibition of human ABL1 pM351T mutant by discoverX kinome scan assay
[3] = Inhibition of human ABL1 pT315I mutant by discoverX kinome scan assay
[4] = target: Serine/threonine-protein kinase MRCK beta (Homo sapiens, UniProt Q9Y5S2); experiment: Inhibition of human MRCKB by discoverX kinome scan assay
Myosin-IIIa = Myosin-IIIa (Homo sapiens, UniProt Q8NEV4); experiment: Inhibition of human MYO3A by discoverX kinome scan assay
Chain of Myosin-IIIa (Q8NEV4 whole entry): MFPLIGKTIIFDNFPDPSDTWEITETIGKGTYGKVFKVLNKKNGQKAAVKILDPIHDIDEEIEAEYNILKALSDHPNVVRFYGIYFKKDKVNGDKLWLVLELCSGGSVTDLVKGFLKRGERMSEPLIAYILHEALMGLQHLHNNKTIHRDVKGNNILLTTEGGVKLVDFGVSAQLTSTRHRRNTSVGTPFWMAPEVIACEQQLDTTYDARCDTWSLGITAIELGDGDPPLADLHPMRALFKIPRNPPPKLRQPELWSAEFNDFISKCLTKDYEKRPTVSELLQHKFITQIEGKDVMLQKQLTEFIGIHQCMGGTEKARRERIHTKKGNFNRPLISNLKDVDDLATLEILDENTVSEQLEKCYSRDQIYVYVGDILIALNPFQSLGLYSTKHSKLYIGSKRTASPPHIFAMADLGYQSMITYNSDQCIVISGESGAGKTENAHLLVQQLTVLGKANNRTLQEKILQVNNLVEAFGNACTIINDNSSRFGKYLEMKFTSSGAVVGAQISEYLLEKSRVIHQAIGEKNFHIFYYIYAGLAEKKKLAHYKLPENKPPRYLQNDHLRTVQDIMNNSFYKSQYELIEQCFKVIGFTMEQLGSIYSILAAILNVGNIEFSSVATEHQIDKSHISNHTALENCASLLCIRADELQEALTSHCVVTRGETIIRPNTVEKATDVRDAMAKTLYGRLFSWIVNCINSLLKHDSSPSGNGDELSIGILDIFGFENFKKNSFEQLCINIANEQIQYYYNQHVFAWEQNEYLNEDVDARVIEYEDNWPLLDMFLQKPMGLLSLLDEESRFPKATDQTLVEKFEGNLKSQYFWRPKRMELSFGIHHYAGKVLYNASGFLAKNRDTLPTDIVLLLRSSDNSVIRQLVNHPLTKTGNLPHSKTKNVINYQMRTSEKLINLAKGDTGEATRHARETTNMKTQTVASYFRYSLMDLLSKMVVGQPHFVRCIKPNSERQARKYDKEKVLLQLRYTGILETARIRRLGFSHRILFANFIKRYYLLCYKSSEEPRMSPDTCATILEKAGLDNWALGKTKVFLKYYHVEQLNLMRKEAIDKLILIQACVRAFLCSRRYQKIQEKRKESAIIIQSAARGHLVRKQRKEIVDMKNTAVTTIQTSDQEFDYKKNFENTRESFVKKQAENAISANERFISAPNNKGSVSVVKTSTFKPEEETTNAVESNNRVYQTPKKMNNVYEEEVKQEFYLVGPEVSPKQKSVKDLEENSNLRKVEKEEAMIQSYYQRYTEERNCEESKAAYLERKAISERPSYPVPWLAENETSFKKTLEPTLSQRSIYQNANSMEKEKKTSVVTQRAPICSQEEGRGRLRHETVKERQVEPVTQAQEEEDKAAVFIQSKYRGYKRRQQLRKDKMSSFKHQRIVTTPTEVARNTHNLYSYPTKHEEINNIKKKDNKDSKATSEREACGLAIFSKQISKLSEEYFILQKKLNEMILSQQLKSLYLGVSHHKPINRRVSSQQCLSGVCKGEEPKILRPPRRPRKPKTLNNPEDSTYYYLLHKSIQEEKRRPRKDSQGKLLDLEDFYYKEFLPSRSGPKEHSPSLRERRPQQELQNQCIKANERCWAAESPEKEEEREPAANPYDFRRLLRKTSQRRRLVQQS

[5] = target: T1, Serine/threonine-protein kinase Nek2 (Homo sapiens, UniProt P51955); experiment: Inhibition of human NEK2 by discoverX kinome scan assay
T1 sequence (P51955 whole entry): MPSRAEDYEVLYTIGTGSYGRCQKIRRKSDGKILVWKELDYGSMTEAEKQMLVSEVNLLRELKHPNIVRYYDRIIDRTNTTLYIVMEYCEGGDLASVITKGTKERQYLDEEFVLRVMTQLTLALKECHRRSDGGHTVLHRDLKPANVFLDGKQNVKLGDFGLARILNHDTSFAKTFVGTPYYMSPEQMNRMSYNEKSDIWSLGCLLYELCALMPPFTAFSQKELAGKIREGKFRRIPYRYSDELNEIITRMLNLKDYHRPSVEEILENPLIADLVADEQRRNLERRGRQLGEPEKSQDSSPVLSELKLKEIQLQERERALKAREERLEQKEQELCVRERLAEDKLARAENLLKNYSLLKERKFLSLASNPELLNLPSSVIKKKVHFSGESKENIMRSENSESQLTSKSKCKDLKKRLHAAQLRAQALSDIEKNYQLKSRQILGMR

[6] = target: T2, Mitogen-activated protein kinase 13 (Homo sapiens, UniProt O15264); experiment: Inhibition of human p38-delta by discoverX kinome scan assay
T2 sequence (O15264 whole entry): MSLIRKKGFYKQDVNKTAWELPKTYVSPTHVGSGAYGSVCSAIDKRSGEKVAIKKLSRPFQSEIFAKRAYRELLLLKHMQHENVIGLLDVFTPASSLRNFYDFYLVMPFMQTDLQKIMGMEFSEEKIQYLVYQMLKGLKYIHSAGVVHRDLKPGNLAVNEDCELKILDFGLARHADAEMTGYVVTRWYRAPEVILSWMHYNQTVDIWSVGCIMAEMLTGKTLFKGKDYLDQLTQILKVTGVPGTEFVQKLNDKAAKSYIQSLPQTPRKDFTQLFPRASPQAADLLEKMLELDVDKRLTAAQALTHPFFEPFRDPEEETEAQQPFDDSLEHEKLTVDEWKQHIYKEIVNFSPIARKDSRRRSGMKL

[7] = target: Protein kinase C eta type (Homo sapiens, UniProt P24723); experiment: Inhibition of human PRKCH by discoverX kinome scan assay
Chain of Protein kinase C eta type (P24723 whole entry, canonical isoform): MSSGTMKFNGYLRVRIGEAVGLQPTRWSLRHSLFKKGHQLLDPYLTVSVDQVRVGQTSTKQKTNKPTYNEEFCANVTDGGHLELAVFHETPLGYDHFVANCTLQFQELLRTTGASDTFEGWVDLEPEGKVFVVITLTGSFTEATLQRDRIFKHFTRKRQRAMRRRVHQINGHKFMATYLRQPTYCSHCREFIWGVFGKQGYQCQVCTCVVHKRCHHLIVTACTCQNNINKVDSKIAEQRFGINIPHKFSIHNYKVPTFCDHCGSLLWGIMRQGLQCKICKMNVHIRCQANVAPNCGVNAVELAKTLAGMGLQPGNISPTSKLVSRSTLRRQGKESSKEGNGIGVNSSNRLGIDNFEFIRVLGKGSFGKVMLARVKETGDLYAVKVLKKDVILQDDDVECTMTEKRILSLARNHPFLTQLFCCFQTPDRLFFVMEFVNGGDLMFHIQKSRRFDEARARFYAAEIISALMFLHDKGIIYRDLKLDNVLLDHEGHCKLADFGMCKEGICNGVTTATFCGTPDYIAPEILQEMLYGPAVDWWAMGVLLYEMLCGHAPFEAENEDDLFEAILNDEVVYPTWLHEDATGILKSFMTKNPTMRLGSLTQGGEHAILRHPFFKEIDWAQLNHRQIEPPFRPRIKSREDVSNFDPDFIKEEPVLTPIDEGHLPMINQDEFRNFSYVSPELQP

[8] = target: Phosphatidylinositol 4,5-bisphosphate 3-kinase catalytic subunit beta isoform (Homo sapiens, UniProt P42338); experiment: Inhibition of human PIK3CB by discoverX kinome scan assay
Chain of Phosphatidylinositol 4,5-bisphosphate 3-kinase catalytic subunit beta isoform (P42338 whole entry, canonical isoform): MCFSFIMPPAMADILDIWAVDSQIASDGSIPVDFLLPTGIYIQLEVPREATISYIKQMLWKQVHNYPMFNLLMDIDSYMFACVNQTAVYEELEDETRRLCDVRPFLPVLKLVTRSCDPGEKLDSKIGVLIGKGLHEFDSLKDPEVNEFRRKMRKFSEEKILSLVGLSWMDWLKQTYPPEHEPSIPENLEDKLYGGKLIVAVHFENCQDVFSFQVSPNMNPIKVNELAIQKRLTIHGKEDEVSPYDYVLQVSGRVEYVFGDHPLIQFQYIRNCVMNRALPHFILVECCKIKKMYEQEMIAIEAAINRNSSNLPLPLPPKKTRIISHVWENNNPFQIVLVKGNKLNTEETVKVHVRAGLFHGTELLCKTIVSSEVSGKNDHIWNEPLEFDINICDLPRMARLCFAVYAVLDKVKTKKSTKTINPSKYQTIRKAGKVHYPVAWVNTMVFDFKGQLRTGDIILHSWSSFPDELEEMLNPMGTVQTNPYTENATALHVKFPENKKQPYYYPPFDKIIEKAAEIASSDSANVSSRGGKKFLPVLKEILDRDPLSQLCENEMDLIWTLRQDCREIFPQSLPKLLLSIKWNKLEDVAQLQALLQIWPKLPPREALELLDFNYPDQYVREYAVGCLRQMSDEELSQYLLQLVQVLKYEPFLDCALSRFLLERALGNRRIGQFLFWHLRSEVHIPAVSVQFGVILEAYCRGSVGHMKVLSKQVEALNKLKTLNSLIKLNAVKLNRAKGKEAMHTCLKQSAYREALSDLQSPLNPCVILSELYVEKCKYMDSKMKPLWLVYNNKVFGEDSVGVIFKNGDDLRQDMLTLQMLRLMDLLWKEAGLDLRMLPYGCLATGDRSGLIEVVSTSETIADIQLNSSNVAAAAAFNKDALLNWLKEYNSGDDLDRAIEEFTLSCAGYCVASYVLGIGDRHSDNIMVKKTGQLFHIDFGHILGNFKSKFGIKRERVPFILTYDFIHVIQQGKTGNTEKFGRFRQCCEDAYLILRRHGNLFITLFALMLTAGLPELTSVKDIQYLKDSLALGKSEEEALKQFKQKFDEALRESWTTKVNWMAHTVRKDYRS

KYSE-150 cell line = experiment: Effect on cellular post-translational modifications on histone […] (GKGGKGLGKGGAKR) - K5 acetylated , K8 unmethylated , K12 acetylated, K16 unmethylated in human KYSE-150 cells assessed as relative abundance at 5 by mass spectrometric analysis (reference value: 3+/-1.7); format: functional; conditions: dose 5 µM

Chain of Serine/threonine-protein kinase MRCK beta (Q9Y5S2 whole entry): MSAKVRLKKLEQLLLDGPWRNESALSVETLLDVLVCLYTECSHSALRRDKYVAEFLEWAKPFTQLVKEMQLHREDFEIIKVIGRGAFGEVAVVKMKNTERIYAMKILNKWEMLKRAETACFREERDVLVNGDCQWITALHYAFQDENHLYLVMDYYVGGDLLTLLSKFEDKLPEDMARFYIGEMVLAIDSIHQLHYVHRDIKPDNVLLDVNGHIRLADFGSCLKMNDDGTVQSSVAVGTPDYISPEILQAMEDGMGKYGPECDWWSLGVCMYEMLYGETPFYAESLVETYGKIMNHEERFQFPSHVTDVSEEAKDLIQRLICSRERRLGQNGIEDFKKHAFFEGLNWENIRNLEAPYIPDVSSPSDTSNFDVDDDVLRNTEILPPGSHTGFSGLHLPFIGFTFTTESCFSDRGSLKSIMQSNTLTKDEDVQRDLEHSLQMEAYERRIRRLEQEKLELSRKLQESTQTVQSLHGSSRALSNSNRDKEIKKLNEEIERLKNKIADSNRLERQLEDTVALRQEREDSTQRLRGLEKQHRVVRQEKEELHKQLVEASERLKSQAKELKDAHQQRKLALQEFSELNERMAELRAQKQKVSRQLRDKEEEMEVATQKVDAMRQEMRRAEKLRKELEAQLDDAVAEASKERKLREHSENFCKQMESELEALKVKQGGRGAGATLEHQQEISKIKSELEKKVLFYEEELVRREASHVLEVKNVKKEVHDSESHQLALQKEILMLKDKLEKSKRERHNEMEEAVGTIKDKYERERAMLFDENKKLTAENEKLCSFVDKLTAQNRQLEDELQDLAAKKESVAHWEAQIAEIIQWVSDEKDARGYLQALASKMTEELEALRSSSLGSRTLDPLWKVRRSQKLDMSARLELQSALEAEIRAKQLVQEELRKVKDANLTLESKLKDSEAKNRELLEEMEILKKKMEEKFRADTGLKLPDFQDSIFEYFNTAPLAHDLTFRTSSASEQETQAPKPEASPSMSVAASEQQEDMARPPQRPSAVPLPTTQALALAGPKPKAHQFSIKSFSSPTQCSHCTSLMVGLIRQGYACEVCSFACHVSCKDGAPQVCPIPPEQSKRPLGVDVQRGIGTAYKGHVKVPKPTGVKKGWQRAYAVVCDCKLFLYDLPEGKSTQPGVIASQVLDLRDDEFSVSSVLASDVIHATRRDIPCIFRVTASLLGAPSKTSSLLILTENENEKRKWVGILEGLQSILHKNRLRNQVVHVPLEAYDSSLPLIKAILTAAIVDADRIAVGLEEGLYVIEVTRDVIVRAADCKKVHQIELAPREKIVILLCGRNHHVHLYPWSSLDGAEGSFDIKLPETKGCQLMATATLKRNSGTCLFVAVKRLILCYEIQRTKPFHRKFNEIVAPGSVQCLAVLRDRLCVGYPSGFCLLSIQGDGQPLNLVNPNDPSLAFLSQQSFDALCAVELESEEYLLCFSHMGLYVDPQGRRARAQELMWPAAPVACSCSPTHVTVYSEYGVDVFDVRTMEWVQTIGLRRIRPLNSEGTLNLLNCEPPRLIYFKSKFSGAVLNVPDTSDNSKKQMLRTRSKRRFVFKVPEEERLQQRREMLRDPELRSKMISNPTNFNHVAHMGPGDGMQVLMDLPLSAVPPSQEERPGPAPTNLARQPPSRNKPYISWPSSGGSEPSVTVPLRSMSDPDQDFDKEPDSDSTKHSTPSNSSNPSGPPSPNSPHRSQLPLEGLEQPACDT

In the case of `Cc1cn(CCN2CCN(c3ccccc3-c3cc(C#N)cc(C(=O)NCCCN4CCCC4)c3)CC2)c2ccccc12`, the IC50 [1] is reported as > 20 µM, the IC50 [2] is reported as > 20 µM and the IC50 [3] is reported as > 20 µM. For the same molecule, the IC50 [4] was > 20 µM, the IC50 (Myosin-IIIa) was > 20 µM and the IC50 [5] was > 20 µM. For the same molecule, the IC50 [6] was > 20 µM, the IC50 [7] was > 20 µM and the IC50 [8] was > 20 µM. It also gave an Activity (KYSE-150 cell line) of 1.6.
